Assay results: patent US9969737B2, “Fluorescent carbapenems” (Hans Rudolf Pfaendler, priority 2010, dated 2018)

What was measured:
[1] = test system: Pseudomonas aeruginosa (IMP, Heidelberg); assay: Detection of metallo-carbapenemases in PBS during incubation; assay type: cell-based; conditions: 100 μg, five drops inoculum McFarland 0.5, over night at 37° C.
Protocol: (§1) Detection of metallo-carbapenemases by fluorogenic potassium-(4S,5R,6S)-3-(4-acetyl-phenyl)-6-((1′R)-hydroxy-ethyl)-4-methyl-7-oxo-1-aza-bicyclo[3.2.0]hept-2-ene-2-carboxylate in PBS during incubation
(§2) Bacterial strains Klebsiella pneumoniae (VIM-1, Heidelberg) and Pseudomonas aeruginosa (IMP, Heidelberg) were grown over night at 37° C. in Mueller-Hinton-Broth (10 ml). To each PBS (1 ml) of fluorogenic carbapenem (100 μg) were added five drops of corresponding inoculum (McFarland 0.5).

[2] = test system: Klebsiella pneumoniae (VIM-1, Heidelberg); assay: as above; assay type: cell-based; conditions: 100 μg, five drops inoculum McFarland 0.5, over night at 37° C.
Protocol: as §1, §2

[3] = molecular target: T1, Klebsiella pneumoniae carbapenemases (KPC), KPC-2 (Klebsiella pneumoniae, UniProt Q9F663); assay: Detection of KPC carbapenemase during sonication with glass beads; assay type: biochemical; conditions: sonication with glass beads in ultrasound bath, 100 μg, treatment for 45 min
T1 construct: endogenous in cells; host or cells: Klebsiella pneumoniae clinical strain (KPC-2, Heidelberg), lysed by sonication
Protocol: Detection of Klebsiella pneumoniae carbapenemases (KPC) by fluorogenic potassium-(4S,5R,6S)-3-(4-acetyl-phenyl)-6-((1′R)-hydroxy-ethyl)-4-methyl-7-oxo-1-aza-bicyclo[3.2.0]hept-2-ene-2-carboxylate during physical disruption by sonication with glass beads
Bacterial strain Klebsiella pneumoniae (producing KPC-2, Heidelberg) was grown over night at 37° C. in Mueller-Hinton-Broth (10 ml). To a sample (1 ml, McFarland 0.5) were added fluorogenic carbapenem (100 μg) and glass beads (100 mg, Sigma-Aldrich, G9018, 150-212 μm, unwashed) using a 5-ml-glass-tube with a plane bottom. The cells were lysed by sonication with a commercial available ultrasound bath.

[4] = test system: Klebsiella pneumoniae (KPC-2, Heidelberg); assay: Detection of carbapenemases during chemical lysis; assay type: biochemical; conditions: McFarland 10 in detergent buffer solution, 100 μg, 6 h at 37° C.
Protocol: (§3) Detection of carbapenemases by fluorogenic potassium-(4S,5R,6S)-3-(4-acetyl-phenyl)-6-((1′R)-hydroxy-ethyl)-4-methyl-7-oxo-1-aza-bicyclo[3.2.0]hept-2-ene-2-carboxylate during chemical lysis
(§4) Bacterial strains Pseudomonas aeruginosa DSM 1117 (no resistance), Pseudomonas aeruginosa (VIM-2, Heidelberg) and Klebsiella pneumoniae (KPC-2, Heidelberg) were incubated over night at 37° C. on Mueller-Hinton-Agar plates. A sample of each strain was suspended (McFarland 10) in primary-amine-free buffer solution (1 ml) of a detergent from Merck (Germany). Fluorogenic carbapenem (100 μg) was added.

[5] = test system: Pseudomonas aeruginosa (VIM-2, Heidelberg); assay: Detection of carbapenemases during chemical lysis; assay type: biochemical; conditions: McFarland 10 in detergent buffer solution, 100 μg, 6 h at 37° C.
Protocol: as §3, §4

[6] = test system: Pseudomonas aeruginosa DSM 1117 (no resistance); assay: Detection of carbapenemases during chemical lysis; assay type: biochemical; conditions: McFarland 10 in detergent buffer solution, 100 μg, 6 h at 37° C.
Protocol: as §3, §4

[7] = test system: Klebsiella pneumoniae (KPC-2, Heidelberg); assay: Detection of carbapenemases during incubation in Mueller-Hinton-Broth; assay type: cell-based; conditions: McFarland 0.5, 100 μg, over night at 37° C.
Protocol: (§5) Detection of carbapenemases by fluorogenic potassium-(4S,5R,6S)-3-(4-acetyl-phenyl)-6-((1′R)-hydroxy-ethyl)-4-methyl-7-oxo-1-aza-bicyclo[3.2.0]hept-2-ene-2-carboxylate during incubation
(§6) Bacterial strains Escherichia coli (ESBL-1, Heidelberg), Escherichia coli (ESBL-2, Heidelberg), Escherichia coli (Oxa-48), Klebsiella pneumoniae (KPC-2, Heidelberg) Klebsiella pneumoniae (VIM-1, Heidelberg), Pseudomonas aeruginosa (GES-2, Heidelberg), Pseudomonas aeruginosa (IMP, Heidelberg) and Pseudomonas aeruginosa (VIM-2, Heidelberg) were grown over night at 37° C. in Mueller-Hinton-Broth (10 ml). To each sample (1 ml, McFarland 0.5) was added fluorogenic carbapenem (100 μg).

[8] = test system: Pseudomonas aeruginosa (IMP, Heidelberg); assay: as above; assay type: cell-based; conditions: McFarland 0.5, 100 μg, over night at 37° C.
Protocol: as §5, §6

[9] = test system: Escherichia coli (ESBL-1, Heidelberg); assay: as above; assay type: cell-based; conditions: ESBL-producer, McFarland 0.5, 100 μg, over night at 37° C.
Protocol: as §5, §6

[10] = test system: Pseudomonas aeruginosa (VIM-2, Heidelberg); assay: as above; assay type: cell-based; conditions: McFarland 0.5, 100 μg, over night at 37° C.
Protocol: as §5, §6

[11] = test system: Pseudomonas aeruginosa (GES-2, Heidelberg); assay: as above; assay type: cell-based; conditions: McFarland 0.5, 100 μg, over night at 37° C.
Protocol: as §5, §6

[12] = test system: Escherichia coli (Oxa-48); assay: as above; assay type: cell-based; conditions: McFarland 0.5, 100 μg, over night at 37° C.
Protocol: as §5, §6

[13] = test system: Klebsiella pneumoniae (VIM-1, Heidelberg); assay: as above; assay type: cell-based; conditions: McFarland 0.5, 100 μg, over night at 37° C.
Protocol: as §5, §6

[14] = test system: Escherichia coli (ESBL-2, Heidelberg); assay: as above; assay type: cell-based; conditions: ESBL-producer, McFarland 0.5, 100 μg, over night at 37° C.
Protocol: as §5, §6

Oxa-48-carbapenemases = molecular target: T2, Oxa-48-carbapenemases (Klebsiella pneumoniae, UniProt Q6XEC0); assay: Detection of inducible (Oxa-type) carbapenemases after sonication; assay type: biochemical, Escherichia coli
T2 construct: endogenous in cells; host or cells: Escherichia coli strain (producing Oxa-48, Heidelberg), with or without imipenem induction, lysed by sonication
Protocol: Detection of inducible (Oxa-type) carbapenemases of Escherichia coli by fluorogenic potassium-(4S,5R,6S)-3-(4-acetyl-phenyl)-6-((1′R)-hydroxy-ethyl)-4-methyl-7-oxo-1-aza-bicyclo[3.2.0]hept-2-ene-2-carboxylate after physical disruption by sonication
Bacterial strain Escherichia cog (producing Oxa-48, Heidelberg) was grown over night at 37° C. (220 rpm) in Mueller-Hinton-Broth (10 ml) using a 45-ml-Falcon tube. A sample (1 ml, McFarland 10) was diluted in Mueller-Hinton-Broth (10 ml) and incubated with Imipenem (2 μg/ml) for 4 h using a 45-ml-Falcon tube. After centrifugation at 13.000 rpm (2 min, 1 ml for analytical studies), the sample was washed once with PBS (1 ml) and resuspended in PBS (500 μl). Subsequently the cells were lysed by sonication with a Bandelin Sonopuls (5×15 s), pulsed at 80% max. power. Further PBS (500 μl) and fluorogenic carbapenem (100 μg) were added.

[15] = molecular target: T1, Klebsiella pneumoniae carbapenemases (KPC), KPC-2; assay: Detection of KPC carbapenemase by fluorogenic carbapenem after physical disruption by sonication; assay type: biochemical; conditions: cells lysed by sonication, PBS, 100 μg carbapenem, room temperature for 5 min
Protocol: Detection of Klebsiella pneumoniae carbapenemases (KPC) by fluorogenic potassium-(4S,5R,6S)-3-(4-acetyl-phenyl)-6-((1′R)-hydroxy-ethyl)-4-methyl-7-oxo-1-aza-bicyclo[3.2.0]hept-2-ene-2-carboxylate after physical disruption by sonication
Bacterial strain Klebsiella pneumoniae (producing KPC-2, Heidelberg) was grown over night at 37° C. (220 rpm) in Mueller-Hinton-Broth (10 ml) using a 45-ml-Falcon tube, harvested by centrifugation at 13.000 rpm (2 min, 1 ml for analytical studies, McFarland 10), washed once with PBS (1 ml), and resuspended in PBS (500 μl). Subsequently the cells were lysed by sonication with a Bandelin Sonopuls (5×15 s), pulsed at 80% max. power. Further PBS (500 μl) and fluorogenic carbapenem (100 μg) were added.

[16] = test system: Klebsiella pneumoniae (KPC-2, Heidelberg); assay: Detection of carbapenemases during optimized incubation; assay type: cell-based; conditions: pre-incubated 6 h at 37° C. (220 rpm), 100 μg, over night at 37° C.
Protocol: (§7) Detection of carbapenemases by fluorogenic potassium-(4S,5R,6S)-3-(4-acetyl-phenyl)-6-((1′R)-hydroxy-ethyl)-4-methyl-7-oxo-1-aza-bicyclo[3.2.0]hept-2-ene-2-carboxylate during optimized incubation
as §6, with “Heidelberg),” for “Heidelberg) and”, “incubated for 6 h” for “grown over night”, “C. (220 rpm)” for “C.”, “ml) using 45-ml-Falcon-tubes.” for “ml).”, “ml)” for “ml, McFarland 0.5)”, “μg) using 15-ml-Falcon-tubes.” for “μg).”

[17] = test system: Pseudomonas aeruginosa (IMP, Heidelberg); assay: as above; assay type: cell-based; conditions: pre-incubated 6 h at 37° C. (220 rpm), 100 μg, over night at 37° C.
Protocol: as §7
as §6, with “Heidelberg),” for “Heidelberg) and”, “incubated for 6 h” for “grown over night”, “C. (220 rpm)” for “C.”, “ml) using 45-ml-Falcon-tubes.” for “ml).”, “ml)” for “ml, McFarland 0.5)”, “μg) using 15-ml-Falcon-tubes.” for “μg).”

[18] = test system: Escherichia coli (ESBL-1, Heidelberg); assay: as above; assay type: cell-based; conditions: ESBL-producer, pre-incubated 6 h at 37° C. (220 rpm), 100 μg, over night at 37° C.
Protocol: as §7
as §6, with “Heidelberg),” for “Heidelberg) and”, “incubated for 6 h” for “grown over night”, “C. (220 rpm)” for “C.”, “ml) using 45-ml-Falcon-tubes.” for “ml).”, “ml)” for “ml, McFarland 0.5)”, “μg) using 15-ml-Falcon-tubes.” for “μg).”

[19] = test system: Pseudomonas aeruginosa (VIM-2, Heidelberg); assay: as above; assay type: cell-based; conditions: pre-incubated 6 h at 37° C. (220 rpm), 100 μg, over night at 37° C.
Protocol: as §7
as §6, with “Heidelberg),” for “Heidelberg) and”, “incubated for 6 h” for “grown over night”, “C. (220 rpm)” for “C.”, “ml) using 45-ml-Falcon-tubes.” for “ml).”, “ml)” for “ml, McFarland 0.5)”, “μg) using 15-ml-Falcon-tubes.” for “μg).”

[20] = test system: Pseudomonas aeruginosa (GES-2, Heidelberg); assay: as above; assay type: cell-based; conditions: pre-incubated 6 h at 37° C. (220 rpm), 100 μg, over night at 37° C.
Protocol: as §7
as §6, with “Heidelberg),” for “Heidelberg) and”, “incubated for 6 h” for “grown over night”, “C. (220 rpm)” for “C.”, “ml) using 45-ml-Falcon-tubes.” for “ml).”, “ml)” for “ml, McFarland 0.5)”, “μg) using 15-ml-Falcon-tubes.” for “μg).”

[21] = test system: Escherichia coli (Oxa-48); assay: as above; assay type: cell-based; conditions: pre-incubated 6 h at 37° C. (220 rpm), 100 μg, over night at 37° C.
Protocol: as §7
as §6, with “Heidelberg),” for “Heidelberg) and”, “incubated for 6 h” for “grown over night”, “C. (220 rpm)” for “C.”, “ml) using 45-ml-Falcon-tubes.” for “ml).”, “ml)” for “ml, McFarland 0.5)”, “μg) using 15-ml-Falcon-tubes.” for “μg).”

[22] = test system: Klebsiella pneumoniae (VIM-1, Heidelberg); assay: as above; assay type: cell-based; conditions: pre-incubated 6 h at 37° C. (220 rpm), 100 μg, over night at 37° C.
Protocol: as §7
as §6, with “Heidelberg),” for “Heidelberg) and”, “incubated for 6 h” for “grown over night”, “C. (220 rpm)” for “C.”, “ml) using 45-ml-Falcon-tubes.” for “ml).”, “ml)” for “ml, McFarland 0.5)”, “μg) using 15-ml-Falcon-tubes.” for “μg).”

[23] = test system: Escherichia coli (ESBL-2, Heidelberg); assay: as above; assay type: cell-based; conditions: ESBL-producer, pre-incubated 6 h at 37° C. (220 rpm), 100 μg, over night at 37° C.
Protocol: as §7
as §6, with “Heidelberg),” for “Heidelberg) and”, “incubated for 6 h” for “grown over night”, “C. (220 rpm)” for “C.”, “ml) using 45-ml-Falcon-tubes.” for “ml).”, “ml)” for “ml, McFarland 0.5)”, “μg) using 15-ml-Falcon-tubes.” for “μg).”

T2 sequence (Q6XEC0 23-265 limits assumed): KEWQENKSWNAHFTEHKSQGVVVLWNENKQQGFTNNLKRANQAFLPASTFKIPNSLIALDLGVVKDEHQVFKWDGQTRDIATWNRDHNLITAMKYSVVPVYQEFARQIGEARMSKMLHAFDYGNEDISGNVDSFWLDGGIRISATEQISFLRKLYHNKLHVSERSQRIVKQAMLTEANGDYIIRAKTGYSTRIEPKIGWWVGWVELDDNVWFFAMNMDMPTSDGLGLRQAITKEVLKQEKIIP
T1 sequence (Q9F663 25-293 limits assumed): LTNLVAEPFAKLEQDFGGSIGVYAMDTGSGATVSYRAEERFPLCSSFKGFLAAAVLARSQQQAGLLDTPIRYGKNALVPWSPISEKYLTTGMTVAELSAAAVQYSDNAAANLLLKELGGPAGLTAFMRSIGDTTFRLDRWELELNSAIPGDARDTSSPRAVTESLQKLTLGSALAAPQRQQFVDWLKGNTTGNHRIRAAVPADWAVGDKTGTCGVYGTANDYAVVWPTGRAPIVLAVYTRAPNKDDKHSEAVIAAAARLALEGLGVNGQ

Substance: potassium-(4S,5R,6S)-3-(4-acetyl-phenyl)-6-((1′R)-hydroxy-ethyl)-4-methyl-7-oxo-1-aza-bicyclo[3.2.0]hept-2-ene-2-carboxylate [Example 1]
- disappearance of the green-yellow fluorescence colour (UV light λ=366 nm) [1]: disappearance of the green-yellow fluorescence colour
- disappearance of the green-yellow fluorescence colour (UV light λ=366 nm) [2]: disappearance of the green-yellow fluorescence colour
- disappearance of the green-yellow fluorescence colour (λ=366 nm) [3]: disappearance of the green-yellow fluorescence colour
- disappearance of the green-yellow fluorescence colour (λ=366 nm) [4]: disappearance of the green-yellow fluorescence colour
- disappearance of the green-yellow fluorescence colour (λ=366 nm) [5]: disappearance of the green-yellow fluorescence colour
- change in fluorescence colour (λ=366 nm) [6]: did not show any change in fluorescence colour
- disappearance of the green-yellow fluorescence colour (UV light λ=366 nm) [7]: disappearance of the green-yellow fluorescence colour
- disappearance of the green-yellow fluorescence colour (UV light λ=366 nm) [8]: disappearance of the green-yellow fluorescence colour
- change in colour (fluorescence, UV light λ=366 nm) [9]: did not show any change in colour
- disappearance of the green-yellow fluorescence colour (UV light λ=366 nm) [10]: disappearance of the green-yellow fluorescence colour
- disappearance of the green-yellow fluorescence colour (UV light λ=366 nm) [11]: disappearance of the green-yellow fluorescence colour
- disappearance of the green-yellow fluorescence colour (UV light λ=366 nm) [12]: disappearance of the green-yellow fluorescence colour
- disappearance of the green-yellow fluorescence colour (UV light λ=366 nm) [13]: disappearance of the green-yellow fluorescence colour
- change in colour (fluorescence, UV light λ=366 nm) [14]: did not show any change in colour
- disappearance of the green-yellow fluorescence colour (UV light λ=366 nm) (Oxa-48-carbapenemases; induced with Imipenem (2 μg/ml) for 4 h, lysed by sonication, PBS, room temperature for 5 min): disappearance of the green-yellow fluorescence colour
- change in fluorescence colour (Oxa-48-carbapenemases; non-induced sample, within 30 minutes): did not show any change in fluorescence colour
- disappearance of the green-yellow fluorescence colour (UV light λ=366 nm) [15]: disappearance of the green-yellow fluorescence colour
- disappearance of the green-yellow fluorescence colour (λ=366 nm) [16]: disappearance of the green-yellow fluorescence colour
- disappearance of the green-yellow fluorescence colour (λ=366 nm) [17]: disappearance of the green-yellow fluorescence colour
- change in fluorescence colour (λ=366 nm) [18]: did not show any change in fluorescence colour
- disappearance of the green-yellow fluorescence colour (λ=366 nm) [19]: disappearance of the green-yellow fluorescence colour
- disappearance of the green-yellow fluorescence colour (λ=366 nm) [20]: disappearance of the green-yellow fluorescence colour
- disappearance of the green-yellow fluorescence colour (λ=366 nm) [21]: disappearance of the green-yellow fluorescence colour
- disappearance of the green-yellow fluorescence colour (λ=366 nm) [22]: disappearance of the green-yellow fluorescence colour
- change in fluorescence colour (λ=366 nm) [23]: did not show any change in fluorescence colour
